From US11275071B2, “Sensor dyes for real-time sensing of metal ions in aqueous environments” (UWM Research Foundation, Inc., priority 2015, dated 2022)

How the values were obtained:
[1] = Metal response of PAN-7OH, absorbance at pH 7; type: binding; conditions: 25 μM PAN-7OH, 250 μM metal ion, pH 7 buffer, 2 mM Triton X-100
Description: (§1) Solutions were made containing 25 μM PAN-7OH and 250 μM metal ion (excess amount) in pH 7 buffer containing 2 mM Triton X-100.

[2] = Metal response of PAN-7OH, absorbance at pH 7; type: binding; conditions: 25 μM PAN-7OH, 250 μM metal ion, pH 7 buffer, 2 mM Triton X-100; remark: listed apart in the source
Description: as §1

[3] = Metal response of PAN-7OH, absorbance at pH 7; type: binding; conditions: 25 μM PAN-7OH, 250 μM metal ion, pH 7 buffer, 2 mM Triton X-100; remark: listed apart in the source
Description: as §1

[4] = Metal response of PAN-7OH, absorbance at pH 7; type: binding; conditions: 25 μM PAN-7OH, 250 μM metal ion, pH 7 buffer, 2 mM Triton X-100; remark: listed apart in the source
Description: as §1

[5] = Metal response of PAN-7OH, absorbance at pH 7; type: binding; conditions: 25 μM PAN-7OH, 250 μM metal ion, pH 7 buffer, 2 mM Triton X-100; remark: listed apart in the source
Description: as §1

[6] = Metal response of PAN-7OH, absorbance at pH 7; type: binding; conditions: 25 μM PAN-7OH, 250 μM metal ion, pH 7 buffer, 2 mM Triton X-100; remark: listed apart in the source
Description: as §1

[7] = Metal response of PAN-7OH, absorbance at pH 7; type: binding; conditions: 25 μM PAN-7OH, 250 μM metal ion, pH 7 buffer, 2 mM Triton X-100; remark: listed apart in the source
Description: as §1

[8] = Metal response of PAN-7OH, absorbance at pH 7; type: binding; conditions: 25 μM PAN-7OH, 250 μM metal ion, pH 7 buffer, 2 mM Triton X-100; remark: listed apart in the source
Description: as §1

[9] = Metal response of PAN-7OH, absorbance at pH 7; type: binding; conditions: 25 μM PAN-7OH, 250 μM metal ion, pH 7 buffer, 2 mM Triton X-100; remark: listed apart in the source
Description: as §1

[10] = Metal response of PAN-7OH, absorbance at pH 7; type: binding; conditions: 25 μM PAN-7OH, 250 μM metal ion, pH 7 buffer, 2 mM Triton X-100; remark: listed apart in the source
Description: as §1

[11] = Metal response of PAN-7OH, absorbance at pH 7; type: binding; conditions: 25 μM PAN-7OH, 250 μM metal ion, pH 7 buffer, 2 mM Triton X-100; remark: listed apart in the source
Description: as §1

[12] = Metal response of PAN-7OH, absorbance at pH 7; type: binding; conditions: 25 μM PAN-7OH, 250 μM metal ion, pH 7 buffer, 2 mM Triton X-100; remark: listed apart in the source
Description: as §1

[13] = Metal response of PAN-7OH, absorbance at pH 7; type: binding; conditions: 25 μM PAN-7OH, 250 μM metal ion, pH 7 buffer, 2 mM Triton X-100; remark: listed apart in the source
Description: as §1

[14] = Protonation states of free PAN-7OH, pKA; type: physicochemical; conditions: free dye; site 1-OH (Metal Binding)
Description: The acid dissociation constants (pKA) and spectral profiles were determined for PAN-70H. PAN-7OH has three protonation sites: The heterocyclic nitrogen in the pyridyl moiety, and the two hydroxyl groups on the naphthalene ring. […] The latter group can potentially be used for covalent attachment of the sensor to a substrate.
The buffer reagents were treated with Chelex-100 to remove trace metal impurities. The samples were prepared containing 25 μM PAN-7OH in a 0.1 M pH buffer containing 2 mM Triton X-100 surfactant.
The data was analyzed using ReactLab Equilibria to determine the resulting pKA values. PAN-7OH has three protonation sites, so four species were used for the analysis model. The pKA values were assigned using values from well-known molecules with a similar structure. […] No error propagation calculations were performed here.

[15] = Protonation states of Zn-(PAN-7OH) complexes

pKA [14]: 12.258
pH at which the Zn-(PAN-7OH) complexes decomposed, strongly alkaline conditions [15]: > 12 pH
pH at which the Zn-(PAN-7OH) complexes decomposed, weakly acidic conditions [15]: < 6 pH
Acidic Dissociation ([15]; Zn(PAN-7OH)2H2 decomposition under acidic conditions, midpoint of species distribution curve): 5.272
Alkaline Dissociation ([15]; Zn(PAN-7OH)2^2− decomposition, zinc hydroxide formation, strongly alkaline conditions, midpoint of curve): 13.164
Complex pKA ([15]; non-binding hydroxyl group in the Zn-(PAN-7OH) complex, 20 μM PAN-7OH, 20 μM zinc): 10.449
SMILES: Oc1ccc2ccc(O)c(N=Nc3ccccn3)c2c1 [PAN-7OH]
absorbance change relative to the free dye [1]: red-shifted absorbance
absorbance change relative to the free dye ([1]; minor): red-shifted absorbance
absorbance change relative to the free dye [2]: red-shifted absorbance
absorbance change relative to the free dye [3]: red-shifted absorbance
absorbance change relative to the free dye [4]: red-shifted absorbance
absorbance change relative to the free dye [5]: red-shifted absorbance
absorbance change relative to the free dye [6]: red-shifted absorbance
absorbance change relative to the free dye [7]: blue-shifted absorbance
absorbance change relative to the free dye [8]: blue-shifted absorbance
absorbance change relative to the free dye [9]: did not exhibit an appreciable absorbance change
absorbance change relative to the free dye [10]: did not exhibit an appreciable absorbance change
absorbance change relative to the free dye [11]: did not exhibit an appreciable absorbance change
absorbance change relative to the free dye [12]: did not exhibit an appreciable absorbance change
absorbance change relative to the free dye [13]: did not exhibit an appreciable absorbance change
